Data: PubChem BioAssay (NCI)
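How tested: cells in 96-well plates exposed to compound for 48 hours at five concentrations. GI50: concentration for 50% inhibition of growth. TGI marks complete inhibition of growth.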

How the values were obtained:
Experiment in all cases: NCI anticancer screen, dose series, 48 h
MDA-MB-435 = test system: MDA-MB-435
HCT-15 colon = test system: HCT-15 colon
UACC-257 melanoma = test system: UACC-257 melanoma
MCF7 breast = test system: MCF7 breast
HOP-92 NSCLC = test system: HOP-92 NSCLC
HT29 colon = test system: HT29 colon
UACC-62 melanoma = test system: UACC-62 melanoma
786-0 renal = test system: 786-0 renal
SF-295 CNS = test system: SF-295 CNS
T-47D breast = test system: T-47D breast

COc1ccc(C(=O)C(CC2C(=O)CC(C)(C)C(C(=O)C(=O)Nc3c(C)cccc3C)C2=O)c2ccc(OC)cc2)cc1 (centres undefined)
TGI (MDA-MB-435): > 100 µM
TGI (HCT-15 colon): > 100 µM
TGI (UACC-257 melanoma): > 100 µM
TGI (MCF7 breast): > 100 µM
TGI (HOP-92 NSCLC): > 100 µM
TGI (HT29 colon): > 100 µM
TGI (UACC-62 melanoma): > 100 µM
TGI (786-0 renal): > 100 µM
TGI (SF-295 CNS): > 100 µM

CCC[CH2][Ge]([CH2]CCC)([CH2]CCC)[O]C(=O)C(OC(C)=O)c1ccccc1 (centres undefined)
GI50 (HCT-15 colon): 1730 nM
TGI (HCT-15 colon): 14.5 µM
GI50 (UACC-257 melanoma): 246 nM
TGI (UACC-257 melanoma): 11.5 µM
GI50 (HOP-92 NSCLC): 438 nM
TGI (HOP-92 NSCLC): 12.3 µM
GI50 (HT29 colon): 742 nM
TGI (HT29 colon): 13.8 µM
GI50 (UACC-62 melanoma): 1640 nM
TGI (UACC-62 melanoma): 15.6 µM
GI50 (786-0 renal): 6340 nM
TGI (786-0 renal): 22.8 µM
GI50 (SF-295 CNS): 4.02 µM
TGI (SF-295 CNS): 23.3 µM

CC1OC(n2cc(I)c(=O)[nH]c2=O)C=CC1=O (centres undefined)
TGI (HCT-15 colon): 32.3 µM
TGI (UACC-257 melanoma): 27.8 µM
TGI (HOP-92 NSCLC): 33.9 µM
TGI (HT29 colon): 30.6 µM
TGI (UACC-62 melanoma): 31.2 µM
TGI (786-0 renal): 26.9 µM
TGI (SF-295 CNS): 32.5 µM

O=C1CCCC(=O)C1C(=O)c1ccc(C(F)(F)F)cc1[N+](=O)[O-]
GI50 (MDA-MB-435): > 100 µM
TGI (MDA-MB-435): > 100 µM
GI50 (HCT-15 colon): > 100000 nM
TGI (HCT-15 colon): > 100 µM
GI50 (UACC-257 melanoma): > 100000 nM
TGI (UACC-257 melanoma): > 100 µM
GI50 (MCF7 breast): > 100000 nM
TGI (MCF7 breast): > 100 µM
GI50 (HT29 colon): > 100000 nM
TGI (HT29 colon): > 100 µM
GI50 (UACC-62 melanoma): > 100000 nM
TGI (UACC-62 melanoma): > 100 µM
GI50 (786-0 renal): > 100000 nM
TGI (786-0 renal): > 100 µM
GI50 (T-47D breast): > 100 µM
TGI (T-47D breast): > 100 µM
GI50 (SF-295 CNS): > 100 µM
TGI (SF-295 CNS): > 100 µM

N#CC(C#N)=Cc1ccc(Oc2ccccc2)cc1
TGI (HCT-15 colon): > 100 µM
TGI (UACC-257 melanoma): > 71.3 µM
TGI (HT29 colon): 56.1 µM
TGI (UACC-62 melanoma): 35 µM
TGI (786-0 renal): 33 µM
TGI (SF-295 CNS): 59.2 µM

O=[N+]([O-])c1cc([N+](=O)[O-])c(C(Cl)C(Cl)c2ccccc2)cc1C(Cl)C(Cl)c1ccccc1 (centres undefined)
TGI (HCT-15 colon): 3.12 µM
TGI (UACC-257 melanoma): 4.09 µM
TGI (HOP-92 NSCLC): 3.26 µM
TGI (HT29 colon): 4.67 µM
TGI (UACC-62 melanoma): 3.7 µM
TGI (786-0 renal): 3.12 µM
TGI (SF-295 CNS): 5.17 µM

COC(=O)C(C(=O)C(=O)Nc1ccc([N+](=O)[O-])cc1)c1nc2cc(C)c(C)cc2[nH]c1=O (centres undefined)
TGI (HCT-15 colon): > 100 µM
TGI (UACC-257 melanoma): > 100 µM
TGI (HOP-92 NSCLC): > 100 µM
TGI (HT29 colon): > 100 µM
TGI (UACC-62 melanoma): > 100 µM
TGI (786-0 renal): > 100 µM
TGI (SF-295 CNS): > 100 µM

COC(=O)C1=C(C)N(NC(=O)c2cccc(Cl)c2)C(C)(O)C12CCOC2=O (centres undefined)
TGI (HCT-15 colon): > 100 µM
TGI (UACC-257 melanoma): > 100 µM
TGI (HT29 colon): > 100 µM
TGI (UACC-62 melanoma): > 100 µM
TGI (786-0 renal): > 100 µM
TGI (SF-295 CNS): > 100 µM

CCOc1ccc(N=Nc2c(-c3ccccc3)nn(C(=O)CC(=O)Nc3cccc(C)c3)c2-c2ccccc2)cc1
TGI (UACC-257 melanoma): > 100 µM
TGI (HOP-92 NSCLC): > 100 µM
TGI (HT29 colon): > 100 µM
TGI (UACC-62 melanoma): > 100 µM
TGI (786-0 renal): > 100 µM
TGI (SF-295 CNS): > 100 µM

CN1CCN(CCCOc2ccc3nc(Nc4ccc(C(F)(F)F)c(Cl)c4)ccc3c2)CC1
GI50 (MDA-MB-435): 1.63 µM
TGI (MDA-MB-435): 3.16 µM
GI50 (HCT-15 colon): 1140 nM
TGI (HCT-15 colon): 2.62 µM
GI50 (MCF7 breast): 1370 nM
TGI (MCF7 breast): 3.56 µM
GI50 (HOP-92 NSCLC): 1150 nM
TGI (HOP-92 NSCLC): 2.94 µM
GI50 (HT29 colon): 493 nM
TGI (HT29 colon): 1.87 µM
GI50 (UACC-62 melanoma): 1830 nM
TGI (UACC-62 melanoma): 3.88 µM
GI50 (786-0 renal): 1670 nM
TGI (786-0 renal): 3.21 µM
GI50 (T-47D breast): 1.62 µM
TGI (T-47D breast): 4.54 µM
GI50 (SF-295 CNS): 1.67 µM
TGI (SF-295 CNS): 3.2 µM

CC(=O)OC1CC(C)c2c(Cl)ncnc21 (centres undefined)
GI50 (MDA-MB-435): > 100 µM
TGI (MDA-MB-435): > 100 µM
GI50 (HCT-15 colon): > 100000 nM
TGI (HCT-15 colon): > 100 µM
GI50 (MCF7 breast): > 100000 nM
TGI (MCF7 breast): > 100 µM
GI50 (HOP-92 NSCLC): > 100000 nM
TGI (HOP-92 NSCLC): > 100 µM
GI50 (HT29 colon): > 100000 nM
TGI (HT29 colon): > 100 µM
GI50 (UACC-62 melanoma): > 100000 nM
TGI (UACC-62 melanoma): > 100 µM
GI50 (786-0 renal): > 100000 nM
TGI (786-0 renal): > 100 µM
GI50 (T-47D breast): > 100 µM
TGI (T-47D breast): > 100 µM

C/C=C/C=C\C(=O)C1c2cccc(O)c2C(=O)c2c(O)cc(C)cc21 (centres undefined)
TGI (HCT-15 colon): 3.6 µM
TGI (UACC-257 melanoma): 3.46 µM
TGI (HOP-92 NSCLC): 3.33 µM
TGI (HT29 colon): 4.21 µM
TGI (786-0 renal): 3.93 µM
TGI (SF-295 CNS): 2.25 µM

C[CH2][Sn]([Cl])([CH2]C)[CH2]C
GI50 (HCT-15 colon): 637 nM
TGI (HCT-15 colon): 5.79 µM
GI50 (UACC-257 melanoma): 1000 nM
TGI (UACC-257 melanoma): 4.43 µM
GI50 (HOP-92 NSCLC): 186 nM
TGI (HOP-92 NSCLC): 0.689 µM
GI50 (HT29 colon): 439 nM
TGI (HT29 colon): 2.62 µM
GI50 (UACC-62 melanoma): 515 nM
TGI (UACC-62 melanoma): 11.5 µM
GI50 (786-0 renal): 1010 nM
TGI (786-0 renal): 3.63 µM
GI50 (SF-295 CNS): 1.41 µM
TGI (SF-295 CNS): 3.92 µM

Cc1cn2c(/C=N/N=C(N)N)c(-c3cc(Cl)sc3Cl)nc2s1
GI50 (HCT-15 colon): 1840 nM
TGI (HCT-15 colon): 8.55 µM
GI50 (MCF7 breast): 777 nM
TGI (MCF7 breast): 2.04 µM
GI50 (HT29 colon): 1720 nM
TGI (HT29 colon): 12.1 µM
GI50 (786-0 renal): 887 nM
TGI (786-0 renal): 1.83 µM

CNC(=O)OCc1cc2ccncc2c2c1[nH]c1ccccc12
TGI (HCT-15 colon): > 100 µM
TGI (UACC-257 melanoma): > 100 µM
TGI (HOP-92 NSCLC): > 100 µM
TGI (HT29 colon): > 100 µM
TGI (UACC-62 melanoma): > 100 µM
TGI (786-0 renal): > 100 µM
TGI (SF-295 CNS): > 100 µM

CCOC(=O)NN(C(=O)OCC)C(C(=O)c1ccc(Cl)cc1)=C1NCCN1
TGI (UACC-257 melanoma): > 100 µM
TGI (HOP-92 NSCLC): > 100 µM
TGI (HT29 colon): > 100 µM
TGI (UACC-62 melanoma): > 100 µM
TGI (786-0 renal): > 100 µM
TGI (SF-295 CNS): > 100 µM

COc1cc(C2C(C(=O)OCc3ccccc3)=C(C)NC(C)=C2C(=O)OCc2ccccc2)cc(OC)c1OC
GI50 (UACC-257 melanoma): 3820 nM
TGI (UACC-257 melanoma): > 100 µM
GI50 (MCF7 breast): 2660 nM
TGI (MCF7 breast): > 100 µM
GI50 (HOP-92 NSCLC): 3080 nM
TGI (HOP-92 NSCLC): 37.9 µM
GI50 (HT29 colon): 3350 nM
TGI (HT29 colon): > 100 µM
GI50 (UACC-62 melanoma): 3620 nM
TGI (UACC-62 melanoma): > 100 µM
GI50 (786-0 renal): 1460 nM
TGI (786-0 renal): > 100 µM
GI50 (T-47D breast): 3.67 µM
TGI (T-47D breast): > 100 µM
GI50 (SF-295 CNS): 2.86 µM
TGI (SF-295 CNS): > 100 µM

CC(C)N(C(=O)C12C3C4C5C3C1(C#N)C5C42)C(C)C (centres undefined)
TGI (HCT-15 colon): > 100 µM
TGI (UACC-257 melanoma): > 100 µM
TGI (HOP-92 NSCLC): > 100 µM
TGI (HT29 colon): > 100 µM
TGI (UACC-62 melanoma): > 100 µM
TGI (786-0 renal): > 100 µM
TGI (SF-295 CNS): > 100 µM

COc1ccc2cc(C(=O)/C=C/c3ccco3)ccc2c1
GI50 (MDA-MB-435): 34.2 µM
TGI (MDA-MB-435): > 100 µM
GI50 (HCT-15 colon): 25600 nM
TGI (HCT-15 colon): > 100 µM
GI50 (UACC-257 melanoma): 26100 nM
TGI (UACC-257 melanoma): 59.6 µM
GI50 (HOP-92 NSCLC): 62600 nM
TGI (HOP-92 NSCLC): > 100 µM
GI50 (HT29 colon): 42500 nM
TGI (HT29 colon): > 100 µM
GI50 (UACC-62 melanoma): 26600 nM
TGI (UACC-62 melanoma): > 100 µM
GI50 (786-0 renal): 10400 nM
TGI (786-0 renal): > 100 µM
GI50 (T-47D breast): > 100 µM
TGI (T-47D breast): > 100 µM
GI50 (SF-295 CNS): 38.8 µM
TGI (SF-295 CNS): > 100 µM

O=C1c2ccccc2CCC1(Br)Br
GI50 (MDA-MB-435): 2.34 µM
TGI (MDA-MB-435): 6.53 µM
GI50 (HCT-15 colon): 743 nM
TGI (HCT-15 colon): 2.24 µM
GI50 (UACC-257 melanoma): 1880 nM
TGI (UACC-257 melanoma): 4.98 µM
GI50 (MCF7 breast): 1560 nM
TGI (MCF7 breast): 3.89 µM
GI50 (HOP-92 NSCLC): 1270 nM
TGI (HOP-92 NSCLC): 2.58 µM
GI50 (HT29 colon): 2280 nM
TGI (HT29 colon): 4.43 µM
GI50 (UACC-62 melanoma): 1960 nM
TGI (UACC-62 melanoma): 4.54 µM
GI50 (786-0 renal): 2210 nM
TGI (786-0 renal): 4.55 µM
GI50 (SF-295 CNS): 14.6 µM
TGI (SF-295 CNS): 28 µM
